Reference: patent US9149038B2, “4-amino-6-(heterocyclic)picolinates and 6-amino-2-(heterocyclic)pyrimidine-4-carboxylates and their use as herbicides” (Dow AgroSciences LLC, priority 2013, dated 2015)
Where two headings read alike, the source gives them in different places.

What was measured:
[1] = tested on: Key Grass and Sedge Weeds as well as Grass Crops; assay: Post-Emergent Test II: postemergent herbicidal activity, visual rating after 14 d (Table 8); type: in vivo; conditions: post-emergence, 336 h; for pest or weed control at 35 g/ha: 35 g ai/ha; for pest or weed control at 70 g/ha: 70 g ai/ha; for pest or weed control at 140 g/ha: 140 g ai/ha
Procedure, shortened: (§1)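 Plants were raised in a greenhouse for 7-21 d and treated once at the first or second true leaf stage. Compounds, dissolved in 97:3 acetone:DMSO then diluted into an aqueous acetone/isopropanol/crop oil/Triton X-155 carrier, were applied by overhead track sprayer at 187 L/ha. After 14 d with subirrigation, injury was scored visually from 0 (none) to 100 (complete kill).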

[2] = tested on: Key Broadleaf Weed and Crop Species; assay: Post-Emergent Test II: postemergent herbicidal activity, visual rating after 14 d (Table 7); type: in vivo; conditions: post-emergence, 336 h; for pest or weed control at 35 g/ha: 35 g ai/ha; for pest or weed control at 70 g/ha: 70 g ai/ha; for pest or weed control at 140 g/ha: 140 g ai/ha
Procedure, shortened: as §1

[3] = barnyardgrass (Echinochloa crus-galli), read-out: Visual Growth Reduction (%) 14 Days After Application ECHCG
[4] = giant foxtail (Setaria faberi), read-out: Visual Growth Reduction (%) 14 Days After Application SETFA
[5] = maize, corn (Zea mays), read-out: Visual Growth Reduction (%) 14 Days After Application ZEAMX
[6] = rice (Oryza sativa), read-out: Visual Growth Reduction (%) 14 Days After Application ORYSA
[7] = wheat, spring (Triticum aestivum), read-out: Visual Growth Reduction (%) 14 Days After Application TRZAS
[8] = yellow nutsedge (Cyperus esculentus), read-out: Visual Growth Reduction (%) 14 Days After Application CYPES
[9] = lambsquarters (Chenopodium album), read-out: Visual Growth Reduction (%) 14 Days After Application CHEAL
[10] = oilseed rape, canola (Brassica napus), read-out: Visual Growth Reduction (%) 14 Days After Application BRSNN
[11] = redroot pigweed (Amaranthus retroflexus), read-out: Visual Growth Reduction (%) 14 Days After Application AMARE
[12] = sunflower (Helianthus annuus), read-out: Visual Growth Reduction (%) 14 Days After Application HELAN
[13] = velvetleaf (Abutilon theophrasti), read-out: Visual Growth Reduction (%) 14 Days After Application ABUTH
[14] = wild poinsettia (Euphorbia heterophylla), read-out: Visual Growth Reduction (%) 14 Days After Application EPHHL

Row | SMILES | pest or weed control at 35 g/ha [1, 3] [%] | pest or weed control at 70 g/ha [1, 3] [%] | pest or weed control at 140 g/ha [1, 3] [%] | pest or weed control at 35 g/ha [1, 4] [%] | pest or weed control at 70 g/ha [1, 4] [%] | pest or weed control at 140 g/ha [1, 4] [%] | pest or weed control at 35 g/ha [1, 5] [%] | pest or weed control at 70 g/ha [1, 5] [%] | pest or weed control at 140 g/ha [1, 5] [%] | pest or weed control at 35 g/ha [1, 6] [%] | pest or weed control at 70 g/ha [1, 6] [%] | pest or weed control at 140 g/ha [1, 6] [%] | pest or weed control at 35 g/ha [1, 7] [%] | pest or weed control at 70 g/ha [1, 7] [%] | pest or weed control at 140 g/ha [1, 7] [%] | pest or weed control at 35 g/ha [1, 8] [%] | pest or weed control at 70 g/ha [1, 8] [%] | pest or weed control at 140 g/ha [1, 8] [%] | pest or weed control at 35 g/ha [2, 9] [%] | pest or weed control at 70 g/ha [2, 9] [%] | also measured
1 | COC(=O)c1nc(-c2ccc(F)c3c2OC(F)(F)O3)c(F)c(N)c1Cl [Compound 76] | 0 to 29 | 0 to 29 | 0 to 29 | 0 to 29 | 0 to 29 | 0 to 29 | 0 to 29 | 0 to 29 | 0 to 29 | 0 to 29 | 0 to 29 | 0 to 29 | 30 to 44 | 45 to 59 | 60 to 74 | 0 to 29 | 30 to 44 | 30 to 44 | 85 to 94 | 85 to 94 | pest or weed control at 140 g/ha [2, 9]: 95 to 100%; pest or weed control at 35 g/ha [2, 10]: 60 to 74%; pest or weed control at 70 g/ha [2, 10]: 75 to 84%; pest or weed control at 140 g/ha [2, 10]: 85 to 94%; pest or weed control at 35 g/ha [2, 11]: 95 to 100%; pest or weed control at 70 g/ha [2, 11]: 95 to 100%; pest or weed control at 140 g/ha [2, 11]: 95 to 100%; pest or weed control at 35 g/ha [2, 12]: 85 to 94%; pest or weed control at 70 g/ha [2, 12]: 85 to 94%; pest or weed control at 140 g/ha [2, 12]: 85 to 94%; pest or weed control at 35 g/ha [2, 13]: 60 to 74%; pest or weed control at 70 g/ha [2, 13]: 75 to 84%; pest or weed control at 140 g/ha [2, 13]: 85 to 94%; pest or weed control at 35 g/ha [2, 14]: 0 to 29%; pest or weed control at 70 g/ha [2, 14]: 0 to 29%; pest or weed control at 140 g/ha [2, 14]: 0 to 29%
2 | Nc1c(F)c(-c2ccc(F)c3c2OC(F)(F)O3)nc(C(=O)O)c1Cl [Compound 77] | 0 to 29 | 0 to 29 | 0 to 29 | 0 to 29 | 0 to 29 | 0 to 29 | 0 to 29 | 0 to 29 | 0 to 29 | 0 to 29 | 0 to 29 | 0 to 29 | 45 to 59 | 60 to 74 | 60 to 74 | 0 to 29 | 0 to 29 | 0 to 29 | 85 to 94 | 95 to 100 | pest or weed control at 140 g/ha [2, 9]: 95 to 100%; pest or weed control at 35 g/ha [2, 10]: 75 to 84%; pest or weed control at 70 g/ha [2, 10]: 85 to 94%; pest or weed control at 140 g/ha [2, 10]: 95 to 100%; pest or weed control at 35 g/ha [2, 11]: 95 to 100%; pest or weed control at 70 g/ha [2, 11]: 95 to 100%; pest or weed control at 140 g/ha [2, 11]: 95 to 100%; pest or weed control at 35 g/ha [2, 12]: 85 to 94%; pest or weed control at 70 g/ha [2, 12]: 95 to 100%; pest or weed control at 140 g/ha [2, 12]: 95 to 100%; pest or weed control at 35 g/ha [2, 13]: 30 to 44%; pest or weed control at 70 g/ha [2, 13]: 60 to 74%; pest or weed control at 140 g/ha [2, 13]: 75 to 84%; pest or weed control at 35 g/ha [2, 14]: 0 to 29%; pest or weed control at 70 g/ha [2, 14]: 0 to 29%; pest or weed control at 140 g/ha [2, 14]: 0 to 29%
3 | COC(=O)c1nc(-c2ccc(Br)c3c2OC(F)(F)O3)c(F)c(N)c1Cl [Compound 78, Methyl 4-amino-6-(7-bromo-2,2-difluorobenzo[d][1,3]dioxol-4-yl)-3-chloro-5-fluoropicolinate] | 0 to 29 | 0 to 29 | 0 to 29 | 0 to 29 | 0 to 29 | 0 to 29 | 60 to 74 | 60 to 74 | 60 to 74 | 0 to 29 | 0 to 29 | 0 to 29 | 0 to 29 | 0 to 29 | 0 to 29 | 0 to 29 | 0 to 29 | 0 to 29 | 95 to 100 | 95 to 100 | pest or weed control at 140 g/ha [2, 9]: 95 to 100%; pest or weed control at 35 g/ha [2, 10]: 60 to 74%; pest or weed control at 70 g/ha [2, 10]: 75 to 84%; pest or weed control at 140 g/ha [2, 10]: 75 to 84%; pest or weed control at 35 g/ha [2, 11]: 95 to 100%; pest or weed control at 70 g/ha [2, 11]: 95 to 100%; pest or weed control at 140 g/ha [2, 11]: 95 to 100%; pest or weed control at 35 g/ha [2, 12]: 95 to 100%; pest or weed control at 70 g/ha [2, 12]: 95 to 100%; pest or weed control at 140 g/ha [2, 12]: 95 to 100%; pest or weed control at 35 g/ha [2, 13]: 85 to 94%; pest or weed control at 70 g/ha [2, 13]: 85 to 94%; pest or weed control at 140 g/ha [2, 13]: 85 to 94%; pest or weed control at 35 g/ha [2, 14]: 0 to 29%; pest or weed control at 70 g/ha [2, 14]: 0 to 29%; pest or weed control at 140 g/ha [2, 14]: 0 to 29%
4 | COC(=O)c1nc(-c2ccc(I)c3c2OC(F)(F)O3)c(F)c(N)c1Cl [Compound 79, Methyl 4-amino-3-chloro-6-(2,2-difluoro-7-iodobenzo-[d][1,3]dioxol-4-yl)-5-fluoropicolinate] | 0 to 29 | 0 to 29 | 0 to 29 | 0 to 29 | 0 to 29 | 0 to 29 | 0 to 29 | 0 to 29 | 0 to 29 | 0 to 29 | 0 to 29 | 0 to 29 | 0 to 29 | 0 to 29 | 0 to 29 | 0 to 29 | 0 to 29 | 0 to 29 | 85 to 94 | 85 to 94 | pest or weed control at 140 g/ha [2, 9]: 85 to 94%; pest or weed control at 35 g/ha [2, 10]: 60 to 74%; pest or weed control at 70 g/ha [2, 10]: 60 to 74%; pest or weed control at 140 g/ha [2, 10]: 60 to 74%; pest or weed control at 35 g/ha [2, 11]: 95 to 100%; pest or weed control at 70 g/ha [2, 11]: 95 to 100%; pest or weed control at 140 g/ha [2, 11]: 95 to 100%; pest or weed control at 35 g/ha [2, 12]: 85 to 94%; pest or weed control at 70 g/ha [2, 12]: 85 to 94%; pest or weed control at 140 g/ha [2, 12]: 85 to 94%; pest or weed control at 35 g/ha [2, 13]: 60 to 74%; pest or weed control at 70 g/ha [2, 13]: 75 to 84%; pest or weed control at 140 g/ha [2, 13]: 75 to 84%; pest or weed control at 35 g/ha [2, 14]: 0 to 29%; pest or weed control at 70 g/ha [2, 14]: 0 to 29%; pest or weed control at 140 g/ha [2, 14]: 0 to 29%
